Laboratory results published in patent publication US4172941A, “7-[2-[ω-(1,3-Dit hiolan-2-imino)substituted]-acetylamino]cephalosporanic acid derivatives” (Richardson-Merrell Inc., priority 1978, dated 1979).
Converted amounts (≈) assume the structure as drawn.

Legend:
Streptococcus pyogenes [1] = assay: in vivo protection of mice challenged with a fatal bacterial infection; settings: sc, subcutaneous, 1 and 4 hours after challenge, dose per treatment protecting fifty percent
Procedure: (§1) The following example illustrates the in vivo activity of the compounds of this invention.
(§2) Several groups of 10 mice are challenged with a fatal bacterial infection. Various dose levels of the test compound are administered orally or subcutaneously to separate groups of these animals 1 and 4 hours after challenge. After three of four days, depending upon the test organism, the number of survivors are recorded at each dose level and the dose required per treatment to protect fifty percent of the infected mice (ED50) is calculated by the method described by Reed and Muench, Amer. J. Hyg. 27, 493-497 (1938).

Diplococcus pneumonae = assay: in vitro minimal inhibitory concentration, two-fold serial dilutions in trypticase soy broth; format: cell-based; settings: 24 hours at 37° C.
Procedure: (§3) The following example illustrates the in vitro activity of the compounds of this invention.
(§4) Two-fold serial dilutions of the test compounds are made in trypticase soy broth. A series of tubes of broth containing different concentrations of the test compounds are inoculated with the particular bacterial culture used for in vitro activity. The inoculated tubes are examined for the inhibition of bacterial growth after 24 hours of incubation at 37° C. The following table summarizes the minimal inhibitory concentration (MIC) for various bacterial test cultures using the following compounds: […]

[2] = tested on: Salmonella schottmuelleri; assay: as above; format: cell-based; settings: 24 hours at 37° C.
Procedure: as §3, §4

Streptococcus pyogenes [3] = assay: as above; format: cell-based; settings: 24 hours at 37° C.
Procedure: as §3, §4

Staphylococcus aureus = assay: as above; format: cell-based; settings: 24 hours at 37° C.
Procedure: as §3, §4

Escherichia coli = assay: as above; format: cell-based; settings: 24 hours at 37° C.
Procedure: as §3, §4

Salmonella schotmuelleri = assay: in vivo protection of mice challenged with a fatal bacterial infection; settings: sc, subcutaneous, 1 and 4 hours after challenge, dose per treatment protecting fifty percent
Procedure: as §1, §2

Diplococcus pneumoniae = assay: as above; settings: Streptococcus pneumoniae, 1 and 4 hours after challenge, dose per treatment protecting fifty percent
Procedure: as §1, §2

Row | SMILES | ED50 (Streptococcus pyogenes [1]) | MIC (Diplococcus pneumonae) | MIC [2] | MIC (Streptococcus pyogenes [3]) | MIC (Staphylococcus aureus) | MIC (Escherichia coli) | ED50 (Salmonella schotmuelleri) | ED50 (Diplococcus pneumoniae; po, per os) | ED50 (Diplococcus pneumoniae; sc, subcutaneous)
1 | CC1=C(C(=O)O)N2C(=O)C(NC(=O)C(N=C3SCCS3)c3ccccc3)C2SC1 (stereo not drawn) [Compound B, 7-[2-(1,3-dithiolan-2-imino)-2-phenylacetylamino]desacetoxycephalosporanic acid] | 48 mg/kg | 12.5 µg/mL (≈ 27.8 µM) | > 100 µg/mL | 6.2 µg/mL (≈ 13.8 µM) | 25 µg/mL (≈ 55.6 µM) | > 100 µg/mL |  |  | 
2 | CC1=C(C(=O)O)N2C(=O)C(NC(=O)C(N)c3ccc(N=C4SCCS4)cc3)C2SC1 (stereo not drawn) [Compound C, 7-[2-amino-2-[p-(1,3-dithiolan-2-imino)phenyl]acetylamino]desacetoxycephalosporanic acid] | 0.5 mg/kg | ≤ 0.05 µg/mL | > 100 µg/mL | ≤ 0.05 µg/mL | 3.1 µg/mL (≈ 6.67 µM) | > 100 µg/mL | > 100 mg/kg | 4.1 mg/kg | 5 mg/kg
3 | CC(=O)OCC1=C(C(=O)O)N2C(=O)C(NC(=O)C(O)c3ccc(N=C4SCCS4)cc3)C2SC1 (stereo not drawn) [Compound D, 7-[2-[p-(1,3-dithiolan-2-imino)phenyl]-2-hydroxyacetylamino]cephalosporanic acid] | 2.2 mg/kg | < 0.05 µg/mL | 50 µg/mL (≈ 95.5 µM) | < 0.05 µg/mL | 0.4 µg/mL (≈ 0.764 µM) | 200 µg/mL (≈ 382 µM) |  |  | 
4 | CC(=O)OCC1=C(C(=O)O)N2C(=O)C(NC(=O)CN=C3SCCS3)C2SC1 (stereo not drawn) [Compound A, 7-[2-(1,3-dithiolan-2-imino)acetylamino]cephalosporanic acid] | 15.3 mg/kg | 0.1 µg/mL (≈ 0.232 µM) | 12.5 µg/mL (≈ 29 µM) | 0.4 µg/mL (≈ 0.927 µM) | 0.4 µg/mL (≈ 0.927 µM) | 50 µg/mL (≈ 116 µM) |  |  | 
